Organism: Rattus norvegicus
Assay: Open TG-GATES - Regimen: Daily Repeat
Format: toxicity, organism-based, Sprague-Dawley
Parameters: regimen Daily Repeat, gender Male, age 6 weeks
Settings: in vivo, po, 30 mg/kg, route gavage, dose level Low; for APTT / Bas / Eos / Fbg / Hb / Ht / Lym / MCH / MCHC / MCV / Mono / Neu / PT / Plat / RBC / Ret / WBC: tissue Blood
[1] = 72 h, tissue Kidney, time 3 day
[2] = 72 h, tissue Plasma, time 3 day

CCOC(=O)C(C)(C)Oc1ccc(Cl)cc1 [CLOFIBRATE]
TERMINAL_BW (72 h, time 3 day): 242 g
APTT (72 h, time 3 day): 20.9 s
Bas (72 h, time 3 day): 0%
Eos (72 h, time 3 day): 1%
Fbg (72 h, time 3 day): 226 mg/dL
Hb (72 h, time 3 day): 13.3 g/dL
Ht (72 h, time 3 day): 38%
Lym (72 h, time 3 day): 80.8%
MCH (72 h, time 3 day): 21.4 pg
MCHC (72 h, time 3 day): 35%
MCV (72 h, time 3 day): 61.1 fL
Mono (72 h, time 3 day): 3.2%
Neu (72 h, time 3 day): 15%
PT (72 h, time 3 day): 12.5 s
Plat (72 h, time 3 day): 131.1 x10_4/uL
RBC (72 h, time 3 day): 622.4 x10_4/ul
Ret (72 h, time 3 day): 5%
WBC (72 h, time 3 day): 108.6 x10_2/uL
KIDNEY_L [1]: 1 g
KIDNEY_R [1]: 1 g
KIDNEY_TOTAL [1]: 2.1 g
LIVER (72 h, tissue Liver, time 3 day): 12 g
A/G [2]: 1.6
ALP [2]: 1135 IU/L
ALT [2]: 42.4 IU/L
AST [2]: 72.2 IU/L
BUN [2]: 14.8 mg/dL
CRE [2]: 0.4 mg/dL
Ca [2]: 10.9 mg/dL
Cl [2]: 102 meq/L
DBIL [2]: 0.098 mg/dL
GLC [2]: 200.8 mg/dL
IP [2]: 6.3 mg/dL
K [2]: 4 meq/L
LDH [2]: 265.2 IU/L
Na [2]: 140.2 meq/L
PL [2]: 141 mg/dL
RALB [2]: 3.4 g/dL
TBIL [2]: 0.1 mg/dL
TC [2]: 67.6 mg/dL
TG [2]: 112.2 mg/dL
TP [2]: 5.6 g/dL
gamma-GTP [2]: 0.6 IU/L
TERMINAL_BW ([…], time 7 day): 265.8 g
TERMINAL_BW ([…], time 14 day): 333.8 g
TERMINAL_BW ([…], time 28 day): 411.4 g
APTT ([…], time 7 day): 20.2 s
Bas ([…], time 7 day): 0%
Eos ([…], time 7 day): 0.8%
Fbg ([…], time 7 day): 223.4 mg/dL
Hb ([…], time 7 day): 14.1 g/dL
Ht ([…], time 7 day): 39.7%
Lym ([…], time 7 day): 82%
MCH ([…], time 7 day): 21.9 pg
MCHC ([…], time 7 day): 35.5%
MCV ([…], time 7 day): 61.6 fL
Mono ([…], time 7 day): 2.6%
Neu ([…], time 7 day): 14.2%
PT ([…], time 7 day): 12 s
Plat ([…], time 7 day): 124.1 x10_4/uL
RBC ([…], time 7 day): 643.8 x10_4/ul
Ret ([…], time 7 day): 4.4%
WBC ([…], time 7 day): 88.1 x10_2/uL
APTT ([…], time 14 day): 20.1 s
Bas ([…], time 14 day): 0%
Eos ([…], time 14 day): 1%
Fbg ([…], time 14 day): 219.4 mg/dL
Hb ([…], time 14 day): 13.9 g/dL
Ht ([…], time 14 day): 40.8%
Lym ([…], time 14 day): 78.4%
MCH ([…], time 14 day): 20 pg
MCHC ([…], time 14 day): 34%
MCV ([…], time 14 day): 58.9 fL
Mono ([…], time 14 day): 3.2%
Neu ([…], time 14 day): 17.2%
PT ([…], time 14 day): 12.3 s
Plat ([…], time 14 day): 131 x10_4/uL
RBC ([…], time 14 day): 694.6 x10_4/ul
Ret ([…], time 14 day): 4.8%
WBC ([…], time 14 day): 146.7 x10_2/uL
APTT ([…], time 28 day): 20.8 s
Bas ([…], time 28 day): 0%
Eos ([…], time 28 day): 1%
Fbg ([…], time 28 day): 222 mg/dL
Hb ([…], time 28 day): 14.8 g/dL
Ht ([…], time 28 day): 42.7%

Source: ChEMBL document CHEMBL3885861, “Open TG-GATES”
